For assay [1], the species on record is Canis lupus familiaris. Description: In vitro activity against canine methemoglobin reductase at 33 uM. The arrangement: unit not given here.
For assay [2], the species on record is Canis familiaris. Description: In vitro activity on methemoglobin formation at 5 mM concentration in blood from a normal Beagle dog. The assay is classed as functional, Canis lupus familiaris.
Assay [3] is filed under the species Canis familiaris. As to the kind of experiment: In vitro activity on methemoglobin formation at 1 mM concentration in blood from a normal Beagle dog; Nil. It counts as functional.
The species named for assay [4] is Canis familiaris. As to the kind of experiment: In vitro activity on methemoglobin formation at 5 mM concentration in blood from a normal Beagle dog; Nil. It counts as functional. The conditions noted are these: Canis lupus familiaris.
The species named for assay [5] is Canis familiaris. As to the kind of experiment: In vitro activity on methemoglobin formation at 1 mM concentration in blood from a normal Beagle dog. The assay is classed as functional, Canis lupus familiaris.

Molecules are shown by their SMILES.

The compound `CN1CCN(C(=O)c2cnc3ccc([N+](=O)[O-])cc3c2O)CC1` came in with an Activity in assay [1] of 0.064. Further, the Methemoglobin is 8.6% in assay [2] and “Nil” in assay [3] (Canis lupus familiaris).

On to `CCCCCCCCNC(=O)c1cnc2cc(Cl)c(F)cc2c1O`, for which the Activity in assay [1] amounted to 0.064. The Methemoglobin in assay [2] is listed as 29.3%; in assay [3], 1.7%.

Turning to `CCCCCCCCNC(=O)c1cnc2ccc(F)cc2c1O`, the Activity in assay [1] came out at 0.064. Also, the values for the Methemoglobin in assay [2] and in assay [3] (Canis lupus familiaris) were 18.9% and “Nil”, respectively.

The compound `CCCCCCCCNC(=O)c1cnc2ccc([N+](=O)[O-])cc2c1O` had an Activity in assay [1] of 0.064. For the same compound, the results for the Methemoglobin in assay [2] and in assay [3] (Canis lupus familiaris) were 7.7% and “Nil”, respectively.

On to `O=C(NC1CCCCC1)c1cnc2cc(Cl)c(F)cc2c1O`, for which the Activity in assay [1] was found to be 0.064. The Methemoglobin entry in assay [4] and in assay [3] (Canis lupus familiaris) was “Nil” in each case.

Turning to `O=C(NC1CCCCC1)c1cnc2ccc([N+](=O)[O-])cc2c1O`, the Activity in assay [1] was 0.064. Further, the Methemoglobin in assay [2] is reported as 6.8%; in assay [3] (Canis lupus familiaris), “Nil”.

Regarding `CN1CCN(C(=O)c2cnc3ccc(F)cc3c2O)CC1`, the Activity in assay [1] was 0.064. In addition, the Methemoglobin in assay [2] was 2%; in assay [3] (Canis lupus familiaris), “Nil”.

`CN1CCN(C(=O)c2cnc3cc(Cl)c(F)cc3c2O)CC1` had an Activity in assay [1] of 0.064. Also, the Methemoglobin result in assay [4] and in assay [3] (Canis lupus familiaris) was “Nil” throughout.

In the case of `CCN(CC)CCCC(C)NC(=O)c1cnc2cc(Cl)c(F)cc2c1O` (stereo unspecified), the Activity in assay [1] came out at 0.064. Further, the values for the Methemoglobin in assay [2] and in assay [3] (Canis lupus familiaris) were 16.9% and “Nil”, respectively.

In assay [1], `CCN(CC)CCCC(C)NC(=O)c1cnc2ccc(F)cc2c1O` (stereo unspecified) gave an Activity of 0.064. In addition, the Methemoglobin in assay [2] is 22.4%; in assay [5] it was 1.7%.

`O=C(NC1CCCCC1)c1cnc2ccc(F)cc2c1O` displayed an Activity in assay [1] of 0.064. For the same compound, the values for the Methemoglobin in assay [2] and in assay [3] (Canis lupus familiaris) were 1.5% and “Nil”, respectively.

In assay [1], `CCN(CC)CCCC(C)NC(=O)c1cnc2ccc([N+](=O)[O-])cc2c1O` (stereo unspecified) had an Activity of 0.064. Moreover, the Methemoglobin in assay [2] is listed as 5.17%; in assay [3] (Canis lupus familiaris), “Nil”.

Source of the values: ChEMBL document CHEMBL1131693, “Synthesis and methemoglobin toxicity of the amides of 6/7 mono or disubstituted quinolone” (1999).
